In ChEMBL document CHEMBL3507680, “University of Dundee, Gates Library screen for HepG2 cell viability”:

Experiment: Human HepG2 cell viability assay in 384 well format
Format: toxicity, cell-based
Parameters: dose 125 nL, time 70.5 hour; cytotoxicity at 70.5 h: concentration not given beside the values
Settings: HepG2 cells, read-out: Inhibition

SMILES | cytotoxicity at 70.5 h [%]
CC(O)CN1CCN(C(=O)c2sccc2C2CC2)CC1 (stereo unspecified) | -5.67
COC(=O)CC(NC(=O)c1ccc(OC)cc1OC)c1cccs1 (stereo unspecified) | -11.2
COc1ccc(C(=O)NC(CC(=O)O)c2cccs2)c(OC)c1 (stereo unspecified) | -11.6
COc1cccc(C(=O)NC(CC(=O)O)c2cccs2)c1OC (stereo unspecified) | -9.47
NC(=O)C1CCCN(c2ccc(CNC(=O)c3cnsn3)cc2)C1 (stereo unspecified) | -7.99
NC(=O)C1CCCN(c2ccc(CNC(=O)c3csnn3)cc2)C1 (stereo unspecified) | -6.98
CCn1cnnc1CNC(=O)N1CCC(CN2CCCCCC2)CC1 | -7.73
CCn1cnnc1CNC(=O)N1CCC(CN2CCOCC2)CC1 | -14.7
Cc1cnn(CC2CN(CC(=O)NCc3ccco3)CCO2)c1 (stereo unspecified) | -15.3
Cc1cnn(CC2CN(CC(=O)NCc3ccc(C)s3)CCO2)c1 (stereo unspecified) | -13.6
Cc1cnn(CC2CN(CC(=O)Nc3ccnn3C(C)C)CCO2)c1 (stereo unspecified) | -6.91
Cc1nc(C)n(CC2CCCN2Cc2nc(C)c3ccccc3n2)n1 (stereo unspecified) | -7.3
O=C(O)CC(NC(=O)c1ccccc1OC(F)F)c1cccs1 (stereo unspecified) | 2.5
COc1c(C2CCCN2C(=O)c2ccc(C#N)c(C)n2)c(C)nn1C (stereo unspecified) | -8.97
COc1c(C2CCCN2Cc2nc(C3CC3)no2)c(C)nn1C (stereo unspecified) | 9.69
Cc1ccc(-c2nc(CN3CCOC(CN(C)C)C3)co2)cc1 (stereo unspecified) | -5.51
O=C(CN1CCOC(Cn2cccn2)C1)NCc1ccccn1 (stereo unspecified) | -9.46
CC(Oc1ccccc1)C(=O)N1CCCN(Cc2nccn2C)CC1 (stereo unspecified) | -10.4
Cc1nccn1C1CCCN(C(=O)c2cc(Cl)c3c(c2)OCO3)C1 (stereo unspecified) | -5.54
CSC(C)C(=O)N1CCCN(Cc2nccn2C)CC1 (stereo unspecified) | -1.04
Cc1cnn(CC2CN(Cc3ccccn3)CCO2)c1 (stereo unspecified) | -5.81
Cc1nn(C)c(N(C)C)c1CNCc1ccccc1Cn1cccn1 | -2.08
CCN1CCC(NC(=O)CN2CCCCC2Cn2cncn2)CC1 (stereo unspecified) | 0.615
CCc1n[nH]c(C2CN(C(=O)c3cncnc3CC)CCO2)n1 (stereo unspecified) | 0.869

SMILES | cytotoxicity at 70.5 h [%]
Cc1cnn(CCNCc2ccc(OCc3ccncc3)cc2)c1 | 0.513
CCn1ncc2c1CCCC2NCc1ccccc1N1CCOCC1 (stereo unspecified) | 7.21
CC(C)(C)n1ncc2c1CCCC2NCc1cccc2c1OCCO2 (stereo unspecified) | -7.2
Cc1cnn(CC2CCCN2C(=O)Cc2ccc(C)nc2)c1 (stereo unspecified) | -7.79
CCn1ncc2c1CCCC2NCc1cccc2c1OCCCO2 (stereo unspecified) | -0.304
Cc1cnn(CC2CCCN2C(=O)Cc2cccs2)c1 (stereo unspecified) | -8.39
Cc1nc(C2CCCN(C(=O)c3cc(Cl)c4c(c3)OCO4)C2)no1 (stereo unspecified) | -5.22
Cc1cnn(CC2CCCCN2CC(=O)Nc2nc(C)cs2)c1 (stereo unspecified) | -2.94
CCOc1ncccc1CNC(=O)Nc1cc(C)nn1C | -4.27
Cc1ccc(CNC(C)c2ccc(OCC(=O)NC3CC3)cc2)o1 (stereo unspecified) | -1.22
CCN(Cc1nc2c(cnn2C)c(=O)[nH]1)c1cc(C)cc(C)c1 | 9.75
CC(Cc1cccc(Cl)c1)NC(=O)Nc1cnn(CC(N)=O)c1 (stereo unspecified) | -1.82
COc1ccc(N(C)Cc2nc3c(cnn3C)c(=O)[nH]2)cc1OC | 0.734
CC(C)NC(=O)C1CCN(c2snc3ccccc23)CC1 | -9.65
O=C(Nc1ccc(F)cc1)N1CCN(Cc2noc(C3CC3)n2)CC1 | 1.53
Cc1cnn(CC2CCCCN2C(=O)Cc2c(C)nn(C)c2C)c1 (stereo unspecified) | -3.41
Cc1cnn(CC2CCCN2CC(=O)NC2CCOCC2)c1 (stereo unspecified) | 0.77
Cc1cnn(CC2CCCCN2C(=O)c2csc(C)n2)c1 (stereo unspecified) | -3.43
Cc1cnn(CC2CCCCN2C(=O)Cc2ccc(C#N)cc2)c1 (stereo unspecified) | -7.76
Cc1cnn(CC2CCCCN2C(=O)Cc2cccc(F)c2)c1 (stereo unspecified) | -10.9
Cc1cnn(CC2CCCCN2C(=O)CC(F)(F)F)c1 (stereo unspecified) | -3.76
Cc1cccc(NC(=O)N2CCN(Cc3noc(C4CC4)n3)CC2)c1 | 2.6
Cc1nnc2n1CCN(CCOc1ccccc1C#N)C2 | 11.3
OC(CN1CCC(CNCc2ccccn2)CC1)c1ccccc1 (stereo unspecified) | 1.35

SMILES | cytotoxicity at 70.5 h [%]
CCc1[nH]ncc1C(=O)N1CCOC(c2nc(C)n[nH]2)C1 (stereo unspecified) | -2.8
c1ccc(-n2ncc(CN3CCCC(Cn4cncn4)C3)n2)cc1 (stereo unspecified) | 0.701
CC(=O)N1CCN(C(=O)NCCc2ccc(Cl)s2)CC1 | -4.33
Cc1ccc(-c2nc(CN(Cc3cccs3)CC3CCCO3)no2)cc1 (stereo unspecified) | -8.66
Cc1ccc(-c2nc(CC(=O)N3CCN(c4cnccn4)CC3)cs2)o1 | -4.05
NC(=O)CC1CCN(C(=O)NCCc2ccc(Cl)s2)CC1 | -4.12
O=C(NCC(F)(F)F)C1CSCN1S(=O)(=O)c1ccc(F)cc1Cl (stereo unspecified) | -10.4
O=C(NC1CCN(Cc2cccc3c2OCCO3)CC1)c1cccs1 | 0.406
CCCN1CCC(CNC(=O)C2(c3cccc(C)c3)CC2)C1 (stereo unspecified) | 4.42
Cn1ccnc1CN1CCOC(Cn2cccn2)C1 (stereo unspecified) | -1.69
c1ccc(-n2cc(CN3CCCC3Cn3cncn3)nn2)cc1 (stereo unspecified) | -1.22
c1ccc(-n2cc(CN3CCCCC3Cn3cncn3)nn2)cc1 (stereo unspecified) | -0.323
c1cnnc(N2CCCC2CNc2ncnc3sccc23)c1 (stereo unspecified) | -7.82
Cc1ccc(NC2CCN(C(=O)c3ccc(Cl)cc3F)CC2)nn1 | 23.4
CNc1cc2c(nn1)CCN(C(=O)c1cc(C)n(C3CC3)c1C)C2 | 15.8
CCNc1cc2c(nn1)CCN(C(=O)c1cc(C)n(C3CC3)c1C)C2 | -0.806
Cc1cc2n(n1)CC(CNCc1cnn(-c3ccccc3)c1)CN2 (stereo unspecified) | -3.87
O=C(Cc1ccc2c(c1)OCO2)N1CCN(c2cnccn2)CC1 | -8.46
CCOc1ccccc1OC1CCN(C(=O)c2nc(=O)[nH][nH]2)CC1 | 27.9
CC(C)Oc1ncccc1CNC(=O)C1CCCN(C(=O)C2CC2)C1 (stereo unspecified) | 6.38
c1cnn(CC2CN(Cc3nc(-c4ccsc4)no3)CCO2)c1 (stereo unspecified) | -16.6
O=C(c1ccc(NC2CC2)nc1)N1CCCC(n2cccn2)C1 (stereo unspecified) | -4.81
CCOc1ccccc1C(CC(=O)Nc1ccc(C)cn1)NC(C)=O (stereo unspecified) | -9.08
Cc1ccc(N2CCCN(C(=O)C3(C#N)CCCCC3)CC2)nn1 | -0.352

SMILES | cytotoxicity at 70.5 h [%]
CCc1ccc(C(=O)N2CCN(CCS(C)(=O)=O)CC2)o1 | -14.1
COc1ccc(OC)c(C(O)CN2CC(n3cccn3)C2)c1 (stereo unspecified) | -9.37
Cc1ncc(CN(C)C2CCCN(Cc3noc(C4CC4)n3)C2)s1 (stereo unspecified) | -12.3
CC(C)c1ncc2c(n1)CN(Cc1cccc(OCC(N)=O)c1)CC2 | -7.58
CC(C)c1nc(C2CCCN2CC(=O)N2CCc3ccccc32)no1 (stereo unspecified) | -3.85
Cc1csc(N2CCCN(C(=O)C3(C#N)CCCCC3)CC2)n1 | -9.35
CC(C)c1nc(C2CCCN2CC(=O)N2CCNC2=O)no1 (stereo unspecified) | -3.44
CC(C)c1csc(C2CCCN(C(=O)Cn3ccccc3=O)C2)n1 (stereo unspecified) | 23.3
CC(C)c1ncc2c(n1)CN(Cc1cccc(C#N)c1)CC2 | 4.14
CCc1nc(C2CCCN(C(=O)CCn3ccccc3=O)C2)no1 (stereo unspecified) | -0.684
CCn1ccnc1CN1CCN(CCOc2ccccc2OC)CC1 | 7.36
Cc1cnc(CN(C)C2CCN(CC(=O)N(C)c3nccs3)C2)o1 (stereo unspecified) | 42.1
Cc1cnc(CN(C)C2CCN(CC(=O)Nc3c(C)n[nH]c3C)C2)o1 (stereo unspecified) | 11.7
Cc1cc(CN(C)C(=O)c2cccc(N3CCCC3=O)c2)no1 | -9.25
O=C(Nc1ccccc1OC(F)F)C1=NN(c2ccccc2)C(=O)CN1 | -8.48
CC(Cn1cccn1)NC(=O)NCCc1ccc(Cl)s1 (stereo unspecified) | -5.79
Cc1ccc(OCCNC(=O)C(C)n2cncn2)cc1 (stereo unspecified) | 10.5
OC(COCc1cccs1)CN1CCC(c2ccn[nH]2)CC1 (stereo unspecified) | -17.6
COC(=O)c1ccc(N2CCN(C(=O)c3ccncc3)C(C)C2)cc1 (stereo unspecified) | 15.3
CC(NC(=O)N1CCC(n2cncn2)CC1)c1ccc(F)cc1F (stereo unspecified) | -13.6
Cc1nc(CN2CCCN(C(=O)C3(C#N)CCCCC3)CC2)cs1 | -16.4
O=C(NCCNc1ncccn1)N(Cc1ccc(F)cc1F)C1CC1 | -18.1
CN(C)C(=O)N1CCN(Cc2noc(Cc3ccccc3)n2)CC1 | -5.82
O=C(CCCOCc1ccccc1)N1CCCC1c1ccccn1 (stereo unspecified) | -12.6

SMILES | cytotoxicity at 70.5 h [%]
Cn1cc(C2CCCN2C(=O)CCCOCc2ccccc2)cn1 (stereo unspecified) | 4.25
CCc1nc2n(n1)CC(NCC(=O)Nc1nccs1)CC2 (stereo unspecified) | 8
O=C(CN1CCCCC1Cn1cncn1)NCCc1ccc(F)cc1 (stereo unspecified) | 32.1
CCN(C(=O)CS(=O)(=O)Cc1cc(Cl)c2c(c1)OCCCO2)C1CC1 | 0.0743
CCOc1ccc(S(=O)(=O)NCc2cccnc2N(C)C)cc1 | 52.9
COCCOc1ccc(NC(=O)N(C)Cc2ccsc2)cn1 | 3.32
O=C(CN1CCC(c2ccnn2CCO)CC1)NCc1cccs1 | 18.4
O=C(CN1CCC(c2ccnn2CCO)CC1)NCC1CC1 | 10.7
CC(C)N(CC(N)=O)Cc1csc(Cc2ccccc2)n1 | 24.4
CCC(CNC(=O)Nc1cnn(CC)c1)N1CCCC1 (stereo unspecified) | -3.1
Cc1nn(C)c(N2CCOCC2)c1CNC1CCN(C(C)(C)C)CC1 | 1.66
Cc1csc(N2CCN(C(=O)CCn3cncn3)CC2)n1 | -7.97
CCn1cc(CN2CCCN(C(=O)Cc3cccs3)CC2)cn1 | 28
O=C1CC(N(C(=O)c2ccc3c(c2)CCC3)C2CC2)C(=O)N1 (stereo unspecified) | 33.4
COc1cc(C(=O)N(C2CC2)C2CC(=O)NC2=O)ccc1C (stereo unspecified) | -0.747
Cc1cccc(-c2noc(CN3CCCC(Cn4cncn4)C3)n2)c1 (stereo unspecified) | 35.6
Cc1nccn1C1CCCN(C(=O)c2cc3ccccc3[nH]2)C1 (stereo unspecified) | 42.8
Cc1nccn1C1CCCN(C(=O)c2cc(O)nc3ccccc23)C1 (stereo unspecified) | 12.3
Cc1nn(C)c(N2CCOCC2)c1CNC1CCc2ccccc2C1 (stereo unspecified) | 16.6
Cn1cc(C2CCCN2Cc2csc(C(C)(C)C)n2)cn1 (stereo unspecified) | 25.7
